Results: ChEMBL document CHEMBL5465560, “Selectivity Literature for EUbOPEN Chemogenomic Library” (2024)

How the values were obtained:
[1] = test system: Epidermal growth factor receptor (Homo sapiens), P00533 [UNDEFINED MUTATION]; assay: Selectivity interaction (KinomeScan (DiscoverX)) EUB0001049a EGFR; details: at 1 µM
[2] = target: LIM domain kinase 1 (Homo sapiens) (UniProt P53667); assay: Selectivity interaction (KinomeScan (DiscoverX)) EUB0001049a LIMK1; details: at 1 µM
[3] = target: Ribosomal protein S6 kinase alpha-1 (Homo sapiens, UniProt Q15418); assay: Selectivity interaction (Ambit KINOMEscan and KiNATiv profiling in Jurkat cells) EUB0000090b RPS6KA1; assay type: cell-based; details: at 1 µM
[4] = target: Serine/threonine-protein kinase MARK2 (Homo sapiens) (UniProt Q7KZI7); assay: Selectivity interaction (KinomeScan (DiscoverX)) EUB0000695a MARK2; details: at 100 nM
Sequence of Serine/threonine-protein kinase MARK2 (Homo sapiens) (Q7KZI7 whole entry): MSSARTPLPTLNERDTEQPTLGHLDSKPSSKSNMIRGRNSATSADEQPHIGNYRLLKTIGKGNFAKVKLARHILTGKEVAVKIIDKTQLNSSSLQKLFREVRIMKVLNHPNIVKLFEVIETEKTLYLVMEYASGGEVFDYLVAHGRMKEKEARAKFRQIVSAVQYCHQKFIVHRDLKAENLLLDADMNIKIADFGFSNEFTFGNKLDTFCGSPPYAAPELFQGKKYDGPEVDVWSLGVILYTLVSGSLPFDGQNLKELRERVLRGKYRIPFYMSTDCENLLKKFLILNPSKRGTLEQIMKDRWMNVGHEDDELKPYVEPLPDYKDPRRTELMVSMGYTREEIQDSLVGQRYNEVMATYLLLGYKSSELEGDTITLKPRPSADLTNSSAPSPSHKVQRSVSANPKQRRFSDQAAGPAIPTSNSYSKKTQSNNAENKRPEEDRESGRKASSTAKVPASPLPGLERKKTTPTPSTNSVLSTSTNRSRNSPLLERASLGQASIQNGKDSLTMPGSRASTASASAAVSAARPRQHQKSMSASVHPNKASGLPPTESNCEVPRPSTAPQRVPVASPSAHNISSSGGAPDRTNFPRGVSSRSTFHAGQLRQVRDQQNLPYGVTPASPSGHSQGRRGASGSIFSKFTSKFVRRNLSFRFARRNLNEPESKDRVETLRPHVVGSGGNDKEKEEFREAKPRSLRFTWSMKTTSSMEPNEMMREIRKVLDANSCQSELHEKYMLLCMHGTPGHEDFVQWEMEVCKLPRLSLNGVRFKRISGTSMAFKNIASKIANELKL

[5] = Selectivity interaction (KinomeScan (DiscoverX)) EUB0000695a CDK2H; details: at 100 nM
[6] = target: Transient receptor potential cation channel subfamily M member 6 (Homo sapiens) (UniProt Q9BX84); assay: Selectivity interaction (KinomeScan (DiscoverX)) EUB0000695a TRPM6; details: at 100 nM
Sequence of Transient receptor potential cation channel subfamily M member 6 (Homo sapiens) (Q9BX84 whole entry): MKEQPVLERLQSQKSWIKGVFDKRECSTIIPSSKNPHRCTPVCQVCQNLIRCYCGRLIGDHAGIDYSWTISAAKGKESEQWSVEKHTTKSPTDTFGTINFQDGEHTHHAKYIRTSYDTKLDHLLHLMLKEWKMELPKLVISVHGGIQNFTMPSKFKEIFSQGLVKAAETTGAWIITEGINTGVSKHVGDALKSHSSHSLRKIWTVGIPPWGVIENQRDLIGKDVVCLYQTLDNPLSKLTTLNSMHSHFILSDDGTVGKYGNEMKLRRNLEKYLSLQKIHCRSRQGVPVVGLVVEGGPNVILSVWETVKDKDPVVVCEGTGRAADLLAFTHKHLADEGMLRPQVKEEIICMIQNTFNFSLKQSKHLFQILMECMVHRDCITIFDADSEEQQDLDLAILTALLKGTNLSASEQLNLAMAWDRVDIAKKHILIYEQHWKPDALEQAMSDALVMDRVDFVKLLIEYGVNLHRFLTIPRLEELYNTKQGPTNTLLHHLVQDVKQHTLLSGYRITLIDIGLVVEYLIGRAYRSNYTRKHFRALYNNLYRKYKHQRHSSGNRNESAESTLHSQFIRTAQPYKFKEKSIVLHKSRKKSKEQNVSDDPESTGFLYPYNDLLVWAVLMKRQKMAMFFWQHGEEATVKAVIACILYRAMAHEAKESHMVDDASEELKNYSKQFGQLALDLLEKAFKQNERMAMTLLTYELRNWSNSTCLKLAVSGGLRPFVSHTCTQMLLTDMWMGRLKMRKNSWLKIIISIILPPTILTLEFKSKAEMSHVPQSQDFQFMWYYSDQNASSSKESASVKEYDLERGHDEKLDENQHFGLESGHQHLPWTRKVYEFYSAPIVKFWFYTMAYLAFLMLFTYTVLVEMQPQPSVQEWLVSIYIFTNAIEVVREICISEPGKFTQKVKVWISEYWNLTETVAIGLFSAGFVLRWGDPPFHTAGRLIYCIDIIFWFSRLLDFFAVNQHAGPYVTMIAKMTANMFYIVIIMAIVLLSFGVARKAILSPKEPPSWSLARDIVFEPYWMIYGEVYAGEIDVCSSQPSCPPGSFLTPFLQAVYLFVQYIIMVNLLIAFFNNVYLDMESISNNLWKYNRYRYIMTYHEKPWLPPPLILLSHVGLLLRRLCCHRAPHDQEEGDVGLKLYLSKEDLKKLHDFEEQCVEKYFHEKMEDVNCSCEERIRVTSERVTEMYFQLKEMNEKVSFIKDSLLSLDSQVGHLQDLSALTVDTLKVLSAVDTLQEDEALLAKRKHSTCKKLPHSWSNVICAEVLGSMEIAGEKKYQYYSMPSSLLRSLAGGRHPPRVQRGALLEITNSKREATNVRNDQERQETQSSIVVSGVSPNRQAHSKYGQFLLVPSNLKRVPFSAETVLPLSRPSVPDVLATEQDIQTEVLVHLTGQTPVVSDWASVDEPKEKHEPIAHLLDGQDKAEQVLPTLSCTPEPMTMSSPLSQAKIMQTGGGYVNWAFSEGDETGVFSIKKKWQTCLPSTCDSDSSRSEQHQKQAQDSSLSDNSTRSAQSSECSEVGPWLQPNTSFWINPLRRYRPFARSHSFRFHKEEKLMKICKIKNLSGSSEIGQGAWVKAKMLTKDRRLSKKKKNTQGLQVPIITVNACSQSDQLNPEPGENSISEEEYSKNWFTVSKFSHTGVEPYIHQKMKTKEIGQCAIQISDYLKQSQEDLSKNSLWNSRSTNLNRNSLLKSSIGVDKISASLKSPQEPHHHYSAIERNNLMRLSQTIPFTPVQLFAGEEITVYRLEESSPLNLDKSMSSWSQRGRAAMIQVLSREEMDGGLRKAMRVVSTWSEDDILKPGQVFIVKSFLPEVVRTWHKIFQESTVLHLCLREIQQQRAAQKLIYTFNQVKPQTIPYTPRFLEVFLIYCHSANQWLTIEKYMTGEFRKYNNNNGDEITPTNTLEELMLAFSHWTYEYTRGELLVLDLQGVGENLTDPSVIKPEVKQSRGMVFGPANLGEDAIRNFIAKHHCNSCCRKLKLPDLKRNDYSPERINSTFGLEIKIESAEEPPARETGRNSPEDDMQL

[7] = target: Myosin-IIIa (Homo sapiens) (UniProt Q8NEV4); details: at 10 µM
Sequence of Myosin-IIIa (Homo sapiens) (Q8NEV4 whole entry): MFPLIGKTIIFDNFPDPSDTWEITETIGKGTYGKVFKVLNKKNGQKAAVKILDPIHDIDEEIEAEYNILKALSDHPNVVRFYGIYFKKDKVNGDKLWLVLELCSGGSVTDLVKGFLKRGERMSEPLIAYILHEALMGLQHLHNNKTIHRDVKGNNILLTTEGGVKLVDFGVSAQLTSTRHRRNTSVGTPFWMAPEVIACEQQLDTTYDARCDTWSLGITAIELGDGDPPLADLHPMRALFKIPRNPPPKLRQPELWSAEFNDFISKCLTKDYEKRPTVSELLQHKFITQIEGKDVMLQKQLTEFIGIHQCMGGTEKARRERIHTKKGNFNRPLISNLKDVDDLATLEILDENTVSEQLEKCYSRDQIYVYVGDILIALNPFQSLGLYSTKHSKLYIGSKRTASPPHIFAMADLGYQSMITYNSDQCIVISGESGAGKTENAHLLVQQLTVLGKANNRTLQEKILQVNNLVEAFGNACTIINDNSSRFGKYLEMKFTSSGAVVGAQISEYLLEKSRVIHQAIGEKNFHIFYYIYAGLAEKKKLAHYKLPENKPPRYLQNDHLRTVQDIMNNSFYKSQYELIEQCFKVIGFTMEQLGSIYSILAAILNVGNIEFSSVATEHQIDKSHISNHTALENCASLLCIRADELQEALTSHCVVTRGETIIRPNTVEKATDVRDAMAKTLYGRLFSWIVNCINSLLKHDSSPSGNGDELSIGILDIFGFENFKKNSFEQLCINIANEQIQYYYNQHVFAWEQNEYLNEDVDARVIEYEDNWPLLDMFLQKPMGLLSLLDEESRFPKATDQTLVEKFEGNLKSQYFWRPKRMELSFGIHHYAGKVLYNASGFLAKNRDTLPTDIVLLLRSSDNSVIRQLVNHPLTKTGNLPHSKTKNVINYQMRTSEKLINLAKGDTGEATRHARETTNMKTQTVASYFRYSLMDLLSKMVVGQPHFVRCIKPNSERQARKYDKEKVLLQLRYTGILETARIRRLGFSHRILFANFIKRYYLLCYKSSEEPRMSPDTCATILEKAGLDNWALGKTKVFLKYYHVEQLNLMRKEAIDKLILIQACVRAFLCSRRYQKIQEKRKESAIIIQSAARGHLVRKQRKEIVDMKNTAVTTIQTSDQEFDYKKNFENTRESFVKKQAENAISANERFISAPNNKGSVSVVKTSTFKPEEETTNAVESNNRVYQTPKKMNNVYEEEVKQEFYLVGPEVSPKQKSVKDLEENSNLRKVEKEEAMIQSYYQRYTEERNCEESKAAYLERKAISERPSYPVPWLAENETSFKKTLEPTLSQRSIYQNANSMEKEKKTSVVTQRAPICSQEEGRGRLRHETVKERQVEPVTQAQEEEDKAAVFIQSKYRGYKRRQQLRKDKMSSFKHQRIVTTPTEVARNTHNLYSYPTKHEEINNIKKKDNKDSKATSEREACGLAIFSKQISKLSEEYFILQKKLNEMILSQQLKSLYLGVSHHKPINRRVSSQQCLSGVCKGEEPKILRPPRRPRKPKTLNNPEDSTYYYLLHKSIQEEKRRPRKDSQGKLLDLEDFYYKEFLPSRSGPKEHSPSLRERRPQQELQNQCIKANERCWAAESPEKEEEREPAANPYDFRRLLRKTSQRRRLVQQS

[8] = target: T1, Cytoplasmic tyrosine-protein kinase BMX (Homo sapiens) (UniProt P51813); assay: Selectivity interaction (KinomeScan (DiscoverX)) EUB0000595a BMX; details: at 10 µM
T1 sequence (whole entry): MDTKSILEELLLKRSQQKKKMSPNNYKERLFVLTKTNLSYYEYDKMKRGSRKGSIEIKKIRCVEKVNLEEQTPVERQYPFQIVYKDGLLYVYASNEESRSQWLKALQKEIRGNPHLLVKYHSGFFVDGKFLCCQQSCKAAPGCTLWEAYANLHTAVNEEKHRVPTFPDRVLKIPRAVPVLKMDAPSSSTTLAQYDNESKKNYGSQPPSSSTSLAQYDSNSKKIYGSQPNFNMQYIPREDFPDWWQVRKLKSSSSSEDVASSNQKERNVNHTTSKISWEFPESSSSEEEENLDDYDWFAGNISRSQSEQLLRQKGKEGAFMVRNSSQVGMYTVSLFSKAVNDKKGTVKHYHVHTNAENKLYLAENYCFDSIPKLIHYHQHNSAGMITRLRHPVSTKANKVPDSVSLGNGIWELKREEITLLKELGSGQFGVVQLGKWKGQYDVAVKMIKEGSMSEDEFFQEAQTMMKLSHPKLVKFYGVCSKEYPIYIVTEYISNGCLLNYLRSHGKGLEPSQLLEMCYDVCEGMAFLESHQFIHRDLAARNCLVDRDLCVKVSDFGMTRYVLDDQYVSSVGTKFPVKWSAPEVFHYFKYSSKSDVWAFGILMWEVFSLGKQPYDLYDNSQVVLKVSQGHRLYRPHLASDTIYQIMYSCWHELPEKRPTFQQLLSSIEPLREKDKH

[9] = target: Transient receptor potential cation channel subfamily M member 6 (Homo sapiens) (UniProt Q9BX84); assay: Selectivity interaction (KinomeScan (DiscoverX)) EUB0000229b TRPM6; details: at 10 µM
[10] = target: T2, Activin receptor type-1 (Homo sapiens) (UniProt Q04771); assay: Selectivity interaction (ProQinase) EUB0000171b ACVR1
T2 sequence (whole entry): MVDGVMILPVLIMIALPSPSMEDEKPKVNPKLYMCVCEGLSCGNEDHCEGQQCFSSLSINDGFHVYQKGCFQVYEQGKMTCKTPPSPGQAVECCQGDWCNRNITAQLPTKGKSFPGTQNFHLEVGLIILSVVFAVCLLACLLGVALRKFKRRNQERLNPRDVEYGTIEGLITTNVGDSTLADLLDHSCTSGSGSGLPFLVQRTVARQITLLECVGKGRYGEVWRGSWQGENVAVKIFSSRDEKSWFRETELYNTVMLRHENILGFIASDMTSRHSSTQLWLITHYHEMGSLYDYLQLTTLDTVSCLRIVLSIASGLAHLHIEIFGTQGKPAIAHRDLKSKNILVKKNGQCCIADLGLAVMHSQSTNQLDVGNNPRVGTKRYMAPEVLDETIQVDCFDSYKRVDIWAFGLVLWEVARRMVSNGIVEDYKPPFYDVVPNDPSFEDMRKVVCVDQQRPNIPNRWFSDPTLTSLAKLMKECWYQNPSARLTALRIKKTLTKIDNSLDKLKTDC

[11] = target: PAS domain-containing serine/threonine-protein kinase (Homo sapiens) (UniProt Q96RG2); assay: Selectivity interaction (Upstate Kinase Profiler service (Millipore)) EUB0000056c PASK; details: at 1 µM
[12] = target: Tyrosine-protein kinase Lyn (Homo sapiens, UniProt P07948); assay: Selectivity interaction (ActivX KiNativ screen (ex vivo kinase selectivity in human PBMCs)) EUB0001619a LYN; assay type: cell-based; details: PBMC, at 1 µM
[13] = target: NT-3 growth factor receptor (Homo sapiens, UniProt Q16288); assay: Selectivity interaction (KinomeScan (DiscoverX)) EUB0001619a NTRK3; details: at 1 µM
[14] = target: T3, Mitogen-activated protein kinase kinase kinase 3 (Homo sapiens) (UniProt Q99759); assay: Selectivity interaction (ActivX KiNativ screen (ex vivo kinase selectivity in human PBMCs)) EUB0001619a MAP3K3; assay type: cell-based; details: PBMC, at 1 µM
T3 sequence (whole entry): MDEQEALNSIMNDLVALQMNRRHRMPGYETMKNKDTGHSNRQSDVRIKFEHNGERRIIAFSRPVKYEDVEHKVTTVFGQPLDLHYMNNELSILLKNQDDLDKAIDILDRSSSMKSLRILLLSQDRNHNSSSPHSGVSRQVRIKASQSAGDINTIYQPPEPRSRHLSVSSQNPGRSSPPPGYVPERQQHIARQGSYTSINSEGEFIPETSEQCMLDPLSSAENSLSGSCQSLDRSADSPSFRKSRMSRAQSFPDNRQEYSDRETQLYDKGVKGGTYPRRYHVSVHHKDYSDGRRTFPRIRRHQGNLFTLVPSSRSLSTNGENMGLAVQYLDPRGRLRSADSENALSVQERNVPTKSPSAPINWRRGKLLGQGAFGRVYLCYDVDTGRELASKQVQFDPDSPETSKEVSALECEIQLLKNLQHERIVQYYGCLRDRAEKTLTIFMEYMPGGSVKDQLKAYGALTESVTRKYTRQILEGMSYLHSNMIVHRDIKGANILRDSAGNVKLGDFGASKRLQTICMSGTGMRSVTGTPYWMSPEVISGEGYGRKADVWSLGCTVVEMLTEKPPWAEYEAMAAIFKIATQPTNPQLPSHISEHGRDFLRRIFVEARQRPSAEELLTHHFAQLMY

[15] = target: Mitogen-activated protein kinase kinase kinase 4 (Homo sapiens) (UniProt Q9Y6R4); assay: Selectivity interaction (KinomeScan (DiscoverX)) EUB0000607a MAP3K4; details: at 10 µM
[16] = target: Ribosomal protein S6 kinase alpha-4 (Homo sapiens) (UniProt O75676); assay: Selectivity interaction (KinomeScan (DiscoverX)) EUB0000666a RPS6KA4; details: at 10 µM
[17] = target: Tyrosine-protein kinase Lck (Homo sapiens, UniProt P06239); assay: Selectivity interaction (Panel of kinases, GPCRs, ion channels and transporters (enzymatic assay)) EUB0000223bCl LCK

Sequence of LIM domain kinase 1 (Homo sapiens) (P53667 whole entry, looked up, the tested form may be a part): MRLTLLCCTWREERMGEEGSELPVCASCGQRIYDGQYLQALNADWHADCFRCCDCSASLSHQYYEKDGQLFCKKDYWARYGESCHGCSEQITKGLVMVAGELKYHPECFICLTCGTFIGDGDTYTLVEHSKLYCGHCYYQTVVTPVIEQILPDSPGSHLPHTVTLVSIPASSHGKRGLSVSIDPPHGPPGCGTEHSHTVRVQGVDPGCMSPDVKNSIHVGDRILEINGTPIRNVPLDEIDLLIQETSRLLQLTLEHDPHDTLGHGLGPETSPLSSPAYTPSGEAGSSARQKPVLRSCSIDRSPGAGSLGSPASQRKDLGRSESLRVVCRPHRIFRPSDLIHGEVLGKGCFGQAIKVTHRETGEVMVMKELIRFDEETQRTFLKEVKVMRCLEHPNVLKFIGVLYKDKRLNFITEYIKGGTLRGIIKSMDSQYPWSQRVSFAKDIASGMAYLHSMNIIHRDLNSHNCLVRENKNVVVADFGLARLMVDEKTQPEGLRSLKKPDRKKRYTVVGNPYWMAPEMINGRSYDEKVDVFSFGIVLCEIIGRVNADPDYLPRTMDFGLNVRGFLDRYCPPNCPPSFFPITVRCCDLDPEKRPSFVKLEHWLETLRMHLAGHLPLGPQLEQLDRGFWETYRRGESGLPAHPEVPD

`COc1cc(Nc2nc(C)cc(-c3cnn4nc(OC)ccc34)n2)cc(C(F)(F)F)c1` showed a % of control [1] of 53% and a % of control [2] of 75%.
`CN(C)C/C=C/C(=O)Nc1ccc(C(=O)N2CCCC(Nc3ncc(Cl)c(-c4c[nH]c5ccccc45)n3)C2)cc1` (stereo not drawn) showed a % of control [3] of 89%.
`Cc1cc(F)c(C(=O)Nc2cccc(-c3nncn3C(C)C)n2)cc1-n1cnc(C2CC2)c1` showed a % of control [4] of 100%, a % of control [5] of 92% and a % of control [6] of 100%.
For `CCN(CC)CCCCNc1ncc2cc(-c3cc(OC)cc(OC)c3)c(NC(=O)NC(C)(C)C)nc2n1`, the % of control [7] was 100%.
With `COCC(=O)NC/C=C/c1ccc2ncnc(Nc3ccc(Oc4ccc(C)nc4)c(C)c3)c2c1` [CP-724714] the % of control [8] was 73%.
Work on `COc1cc(N(C)c2ccnc3ccc(C(F)(F)F)cc23)cc(OC)c1OC` yielded a % binding [9] of 100%.
For `C=CC(=O)Nc1cccc(C(=O)Nc2ccc(Nc3cc(-c4[nH]c(SC)nc4C)ccn3)cc2)c1`, the % of control ([10]; at 1 µM) was 85% and the % of control ([10]; at 5 µM) was 54%.
Work on `Cc1ccc(-c2ccc3c(ccc4sc5c(c43)NC[C@@H](C)NC5=O)n2)cn1` yielded a % of inhibition [11] of 44%.
In the case of `N#Cc1cccc(-c2c[nH]c3ncnc(N4CCOCC4)c23)c1`, the % of inhibition [12] is reported as 1%, the % of control [13] is reported as 84% and the % of inhibition [14] is reported as 7%.
Molecule `CNC(=O)Nc1ccc(-c2nc(N3CC4CCC(C3)O4)c3cnn(C4CCC5(CC4)OCCO5)c3n2)cc1` has a % of control [15] of 86%.
With `O=C(NOC[C@H](O)CO)c1ccc(F)c(F)c1Nc1ccc(I)cc1F` the % of control [16] was 100%.
With `COc1cc(C(=O)N2CC[C@@H](O)[C@@H](N)C2)cc2nc(-c3cc4ccccc4n3CC3CC3)n(C)c12` the pXC50 [17] was < 4.5 M.
